Measured values reported in patent US4515708A, “Corrosion inhibitors” (Exxon Research & Engineering Co., priority 1982, dated 1985).
Each block holds one compound with its values, some of them ahead of it.

How the values were obtained:
[1] = Solubility Test (35 wt% solution in isopropylalcohol shaken with water, brine or heptane); assay type: physicochemical; conditions: for SOLUBILITY IN: Heptane: 0.3 ml of 35 wt% IPA solution in 10 ml heptane, 30 minutes and 24 hours; for SOLUBILITY IN: Water: 0.3 ml of 35 wt% IPA solution in 10 ml water, observed after 30 minutes and 24 hours
Protocol: The active material under test was made up into a 35 wt% solution in isopropylalcohol (IPA). 0.3 ml of this solution was shaken with 10 ml of each of the liquids in which solubility is to be tested: water, 5 wt% NaCl solution (brine) and heptane. The mixture was observed after 30 minutes and 24 hours.

[2] = Corrosion Test 1 (dynamic wheel test; 3 wt% brine/Mentor 28; CO2 + H2S); conditions: 24 h, 70° C., 30% solution
Protocol: (§1) For each compound three mild steel coupons (approximately 100 mm×12 mm×1.5 mm) were tested at each concentration. Each was contacted in a 250 ml bottle with 200 ml of a test fluid either saturated with a carbon dioxide at 20° C. or containing 100 ppm hydrogen sulphide or having both CO2 and H2 S present in those amounts. The test fluid was treated with a 30% aqueous solution of the compound under test at 2, 10, 50 and 250 ppm except where indicated to the contrary. The coupon was subjected to a dynamic wheel test in which the bottle was mounted radially on the periphery of 650 mm diameter wheel which was rotated at about 40 rpm for 24 hours at 70° C. The weight loss was obtained, and also measured in a control experiment where no inhibitor was present. From this the % protection was calculated as % reduction in weight loss.
Test fluid: 100 ml 3 wt% brine/100 ml Mentor 28 (Mentor®28 is a depolarised kerosene available from Exxon Chemical Company)
(§2) Corrosives: Saturated CO2 +100 ppm H2 S

[3] = Emulsion Test (3 wt% brine / heptane); assay type: physicochemical; design: Emulsion thickness after 30 mins: unit not given here; conditions: for Time to break emulsion: 1 ml of 35 wt% IPA solution, 50 ml 3 wt% brine, 50 ml heptane; for Appearance after 30 mins, hydrocarbon: hydrocarbon layer; for Appearance after 30 mins, water: water layer
Protocol: 1 ml of the solutions used for Test A was shaken with 50 ml of 3 wt% brine and 50 ml of heptane for 1 minute in a 150 ml bottle. The emulsion was observed, and the time noted for the emulsion to break and form a clean interface with clear liquid layers. If at 30 minutes this had not occurred, the appearance was recorded together with the thickness of any persisting emulsion.

[4] = Corrosion Test 4 (dynamic wheel test; 3 wt% brine + Mentor 28; H2S); conditions: 24 h, 70° C.
Protocol: as §1
(§3) Test fluid: 100 ml 3 wt% brine+100 ml Mentor 28
Corrosives: 100 ppm H2 S (prior nitrogen purge)

[5] = Corrosion inhibition tests, constant concentration conditions (overall)
Protocol: as §1

[6] = Corrosion Test 2 (dynamic wheel test; 3 wt% brine; CO2 + H2S); conditions: 24 h, 70° C.
Protocol: as §1
Test Fluid: 200 ml 3 wt% brine
as §2

[7] = Corrosion Test 3 (dynamic wheel test; 3 wt% brine + Mentor 28; CO2 only); conditions: 24 h, 70° C.
Protocol: as §1, §3
Corrosives: Saturated CO2 only

[8] = Film persistency corrosion test; conditions: CO2 + H2S, 24 h, 70° C.
Protocol: […] A test fluid made up of equal proportions of 3 wt% brine and Mentor 28 was used, saturated with CO2 and containing 100 ppm H2 S as corrosives. Coupons were used as described for the previous corrosion test. A coupon was first immersed in test fluid containing corrosives and the inhibitor under test for 1 hour, then rinsed for 1 hour in a similar test fluid containing no inhibitor and finally transferred to a further test fluid again containing no inhibitor in which the dynamic wheel test was carried out at 70° C. for 24 hours.

[9] = 50 ml 3 wt% brine/50 ml heptane

SMILES: CCCCCCCCCCCCN(CCc1ccccn1)CCc1ccccn1 [Example 19]
SOLUBILITY IN: Heptane [1]: S
SOLUBILITY IN: Water [1]: S
% Protection ([2]; 2 ppm): 16%
% Protection ([2]; 10 ppm): 71%
% Protection ([2]; 50 ppm): 77%
% Protection ([2]; 250 ppm): 86%
Time to break emulsion [3]: > 30 min
Appearance after 30 mins, hydrocarbon [3, 9]: hazy
Appearance after 30 mins, water [3, 9]: hazy
% Protection ([4]; 2 ppm): 2%
% Protection ([4]; 10 ppm): 57%
% Protection ([4]; 250 ppm): 57%
performance of 2:1 derivatives compared with 1:1 derivatives [5]: tended to perform less well than 1:1 derivatives

SMILES: c1ccc(CN(CCc2ccccn2)CCc2ccccn2)cc1 [Example 20]
SOLUBILITY IN: Heptane [1]: S
SOLUBILITY IN: Water [1]: S
% Protection ([2]; 2 ppm): 24%
% Protection ([2]; 10 ppm): 25%
% Protection ([2]; 50 ppm): 63%
% Protection ([2]; 250 ppm): 81%
Time to break emulsion [3]: 1 min
Appearance after 30 mins, hydrocarbon [3, 9]: clear
Appearance after 30 mins, water [3, 9]: clear
performance of 2:1 derivatives compared with 1:1 derivatives [5]: tended to perform less well than 1:1 derivatives
% Protection ([6]; 2 ppm): 51%
% Protection ([6]; 10 ppm): 63%
% Protection ([6]; 50 ppm): 75%
% Protection ([6]; 250 ppm): 91%

Time to break emulsion [3]: 1 min
Appearance after 30 mins, hydrocarbon [3, 9]: clear
Appearance after 30 mins, water [3, 9]: clear
SMILES: CCCCCCN(CCc1ccncc1)CCc1ccncc1 [Example 38]
% Protection ([2]; 2 ppm): 2%
% Protection ([2]; 10 ppm): 64%
% Protection ([2]; 50 ppm): 79%
% Protection ([2]; 250 ppm): 80%
performance of 2:1 derivatives compared with 1:1 derivatives [5]: tended to perform less well than 1:1 derivatives

Time to break emulsion [3]: > 30 min
Emulsion thickness after 30 mins [3, 9]: 0.1
Appearance after 30 mins, hydrocarbon [3, 9]: hazy
Appearance after 30 mins, water [3, 9]: hazy
SMILES: CCCCCCCCCCCCN(CCc1ccncc1)CCc1ccncc1 [Example 39]
% Protection ([7]; 2 ppm): 9%
% Protection ([7]; 10 ppm): 5%
% Protection ([7]; 250 ppm): 15%
% Protection ([2]; 2 ppm): 26%
% Protection ([2]; 10 ppm): 70%
% Protection ([2]; 50 ppm): 89%
% Protection ([2]; 250 ppm): 89%
% Protection ([8]; 500 ppm): 20%
% Protection ([8]; 1000 ppm): 24%
% Protection ([8]; 5000 ppm): 33%
% Protection ([4]; 2 ppm): 3%
% Protection ([4]; 10 ppm): 26%
% Protection ([4]; 50 ppm): 64%
% Protection ([4]; 250 ppm): 85%
performance of 2:1 derivatives compared with 1:1 derivatives [5]: tended to perform less well than 1:1 derivatives
% Protection ([6]; 2 ppm): 41%
% Protection ([6]; 10 ppm): 65%
% Protection ([6]; 50 ppm): 78%
% Protection ([6]; 250 ppm): 87%
